What is called IC50 is the midpoint of a concentration-inhibition curve. Low readings indicate higher potency, high ones lower potency.

This assay deals with T1, SCD1 protein extracted from murine liver (Mus musculus, UniProt P13516).
T1 construct: Microsomes were isolated from murine liver using Microsome Isolation Kit (BioVision); from tissue; host or cells: murine liver microsomes
T1 sequence (P13516 1-355): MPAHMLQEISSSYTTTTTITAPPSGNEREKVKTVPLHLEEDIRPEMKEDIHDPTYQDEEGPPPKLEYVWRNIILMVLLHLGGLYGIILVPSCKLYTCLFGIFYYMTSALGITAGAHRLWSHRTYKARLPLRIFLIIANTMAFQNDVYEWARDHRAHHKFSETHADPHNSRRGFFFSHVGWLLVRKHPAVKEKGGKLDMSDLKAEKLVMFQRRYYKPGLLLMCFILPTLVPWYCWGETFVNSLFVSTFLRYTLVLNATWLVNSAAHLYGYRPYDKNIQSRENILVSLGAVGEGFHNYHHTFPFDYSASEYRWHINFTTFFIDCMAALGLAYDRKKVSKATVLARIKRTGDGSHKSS
The assay can be described thus: In vitro SCD1 enzymatic inhibition by LC/MS (stearoyl-CoA to oleoyl-CoA, liver microsomes). It counts as biochemical. Particulars: n=2. The source says:
After synthesis feasibility and cost analysis, we synthesized 38 of the selected compounds. […] To evaluate inhibition of SCD1 by these molecules, we used LC/MS to quantify changes in SCD1-catalyzed conversion of stearoyl-CoA to oleoyl-CoA in response to drug treatments in vitro using SCD1 protein extracted from murine liver (Figure 3c, Supplementary Figure 2g). […] Synthesis routes and spectral data including NMR and MS are also provided (Supplementary Figures 3-6).
Microsomes were isolated from murine liver using Microsome Isolation Kit (BioVision) per the manufacturer protocol. […] To quantify biotransformation of ^13C18-stearoyl CoA to ^13C18-oleoyl CoA for drug treatments relative to vehicle controls, supernatants were evaluated using the LC/MS^2 acyl CoA quantitation method of Magnes et al. and adapting selected reaction monitoring (SRM) for isotope-labeled acyl CoAs. […] SRM signal areas for isotope-labeled acyl CoAs were measured relative to the heptadecanoyl CoA I.S. using XCalibur software (Thermo), and percent enzyme inhibition determined by comparing ^13C18-oleoyl CoA quantities between treatment and DMSO control assays. […]

In turn, `CNC(=O)c1ccnc(NC(=O)N2CCC(Oc3ccccc3Cl)CC2)c1` [SSI-4] registered an IC50 of 1.9 nM.

Source of the values: article PMC5787466, “Accelerated bottom-up drug design platform enables the discovery of novel stearoyl-CoA desaturase 1 inhibitors for cancer therapy” (Oncotarget, 2017).
